From PubChem BioAssay AID2060487 (Molecular Pharmacology Branch, DTP, NCI, 2025)

Test system: 997537-175-T-J1-PDC complex spheroid viability
Assay: Anticancer human tumor 997537-175-T-J1-PDC patient-derived colon adenocarcinoma cell line growth inhibition [GQUAD]
Settings: for IC50: curve of first compound; for viability, T/C: stronger effect = lower value
Description: DNA G-quadruplex Stabilizer Agents in Combinations in Complex Spheroids
A high-throughput screen of multi-cell type tumor spheroids was designed to identify active combinations of DNA G-quadruplex stabilizer agents and targeted small molecules. Complex spheroids include a stromal component modeled by human endothelial cells (HUVEC) and fibroblasts modeled by human mesenchymal stem cells (MSCs). The concentration ranges selected for each drug and investigational agent were based upon clinically achievable concentrations if the clinical Cmax of the agent was known.
Compounds. The drugs and investigational agents: pidnarulex (CX-5461; NSC782164), APTO-253 (NSC789042), BRACO-19 (NSC847499), peposertib (NSC802822), ceralasertib (NSC780249), elimusertib (NSC800525), camonsertib (NSC841442), AZD-1390 (NSC803789), olaparib (NSC753686), talazoparib (NSC767125), ART-558 (NSC835418), sotorasib (NSC818433), MRTX-1133 (NSC836407), SN-38 (NSC673596), topotecan (NSC609699), etoposide (NSC141540), doxorubicin (NSC123127), gemcitabine (NSC613327), 5-fluorouracil (NSC19893), paclitaxel (NSC125973), vemurafenib (NSC761431), panobinostat (NSC761190), R-306465 (JNJ-16241199; NSC773264), adavosertib (NSC754352), TP-3654 (NSC805149), carboplatin (NSC241240), KSQ-4279 (NSC840948), and staurosporine (NSC755774) were obtained from the National Cancer Institute (NCI) Developmental Therapeutics Program Chemical Repository (34). The FDA-approved anticancer drug set is available from the NCI Developmental Therapeutics Program. […] The stock solutions were prepared in dimethyl sulfoxide (DMSO, Sigma-Aldrich, St. Louis, MO, cat. D2650) at 800-fold the tested concentration and stored at -70 degrees C prior to their use. All drugs and investigational agents were tested over a range starting from a high concentration at or near the clinical Cmax and decreasing in half-log increments. If the clinical Cmax for an agent had not been determined, the highest concentration tested was 10 microM.
2.3 Cell Culture. All cells were maintained in an incubator at 37 degrees C and 5% CO2 with 95% humidity. The PDC lines were cultured according to standard operating procedures established by the NCI PDMR. All PDCs were thawed and cultured in Matrigel-coated flasks prepared with a working solution of 1X Ham's F-12 nutrient mix, without supplementation (Invitrogen, cat. 11765054), 100 U/mL penicillin-streptomycin (Invitrogen, cat. 15140122), and 2.5% Matrigel (Corning Inc., cat. 354248) for the first three passages. The 857933-349-R-J2-PDC line was cultured in 6C/Colon 1B media, which includes advanced DMEM/F-12 (Thermo Fisher Scientific, cat. 12634028), 10 mM HEPES (Thermo Fisher Scientific, cat. 15630080), 1X GlutaMAX supplement (Thermo Fisher Scientific, cat. 35050061), 0.1 mg/mL primocin (InvivoGen, cat. ant-pm-2), 10% defined fetal bovine serum, heat inactivated (HyClone Laboratories Inc., cat. SH30070.03HI), 50% L-WRN conditioned media (ATCC, cat. CRL-3276), 1.25 mM N-Acetyl-L-cysteine (Sigma-Aldrich, cat. A9165), 10 mM nicotinamide (Sigma-Aldrich, cat. N0636), 1X B-27 supplement (Thermo Fisher Scientific, cat. 17504044), 1X N-2 supplement (Thermo Fisher Scientific, cat. 17502048), 10 microM Y-27632 dihydrochloride (Tocris Bioscience, cat. 1254), and 50 ng/mL human EGF recombinant protein (Thermo Fisher Scientific, cat. PHG0311). The 485176-168-R4-J1-PDC line was cultured in Panc media, which includes all 6C/Colon 1B media components plus 100 ng/mL human FGF-10 (Thermo Fisher Scientific, cat. 100-26), 500 nM SB-431542 (Selleckchem, cat. S1067), and gastrin (Tocris, cat. 3006).
[…]

[1] = second compound 0.0316 µM, first compound 0.0316 µM
[2] = second compound 0.0316 µM, first compound 0.1 µM
[3] = second compound 0.0316 µM, first compound 0.316 µM
[4] = second compound 0.0316 µM, first compound 1 µM
[5] = second compound 0.0316 µM, first compound 3.16 µM
[6] = second compound 0.0316 µM, first compound 10 µM
[7] = second compound 0.1 µM, first compound 0.0316 µM
[8] = second compound 0.1 µM, first compound 0.1 µM
[9] = second compound 0.1 µM, first compound 0.316 µM
[10] = second compound 0.1 µM, first compound 1 µM
[11] = second compound 0.1 µM, first compound 3.16 µM
[12] = second compound 0.1 µM, first compound 10 µM
[13] = second compound 0.316 µM, first compound 0.0316 µM
[14] = second compound 0.316 µM, first compound 0.1 µM
[15] = second compound 0.316 µM, first compound 0.316 µM
[16] = second compound 0.316 µM, first compound 1 µM
[17] = second compound 0.316 µM, first compound 3.16 µM
[18] = second compound 0.316 µM, first compound 10 µM
[19] = second compound 1 µM, first compound 0.0316 µM
[20] = second compound 1 µM, first compound 0.1 µM
[21] = second compound 1 µM, first compound 0.316 µM
[22] = second compound 1 µM, first compound 1 µM
[23] = second compound 1 µM, first compound 3.16 µM
[24] = second compound 1 µM, first compound 10 µM
[25] = second compound 3.16 µM, first compound 0.0316 µM
[26] = second compound 3.16 µM, first compound 0.1 µM
[27] = second compound 3.16 µM, first compound 0.316 µM
[28] = second compound 3.16 µM, first compound 1 µM
[29] = second compound 3.16 µM, first compound 3.16 µM
[30] = second compound 3.16 µM, first compound 10 µM
[31] = second compound 10 µM, first compound 0.0316 µM
[32] = second compound 10 µM, first compound 0.1 µM
[33] = second compound 10 µM, first compound 0.316 µM
[34] = second compound 10 µM, first compound 1 µM
[35] = second compound 10 µM, first compound 3.16 µM
[36] = second compound 10 µM, first compound 10 µM
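Note: spheroids exposed to the agents for 7 days.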
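Throughout, for viability, T/C: 100% = DMSO vehicle control viability.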

C#Cc1c(F)ccc2cc(O)cc(-c3ncc4c(N5CC6CCC(C5)N6)nc(OCC56CCCN5CC(F)C6)nc4c3F)c12 (centres undefined) + CN(C)c1ccc(Nc2c3ccc(NC(=O)CCN4CCCC4)cc3nc3cc(NC(=O)CCN4CCCC4)ccc23)cc1
IC50 (second compound 0.0316 µM): > 10 µM
IC50 (second compound 0.1 µM): > 10 µM
IC50 (second compound 0.316 µM): > 10 µM
IC50 (second compound 1 µM): > 10 µM
IC50 (second compound 3.16 µM): > 10 µM
IC50 (second compound 10 µM): > 10 µM
viability, T/C [1]: 102%
viability, T/C [2]: 97.8%
viability, T/C [3]: 98.9%
viability, T/C [4]: 91.1%
viability, T/C [5]: 87.1%
viability, T/C [6]: 107%
viability, T/C [7]: 97.7%
viability, T/C [8]: 89.4%
viability, T/C [9]: 92.6%
viability, T/C [10]: 65.7%
viability, T/C [11]: 110%
viability, T/C [12]: 106%
viability, T/C [13]: 97.2%
viability, T/C [14]: 104%
viability, T/C [15]: 103%
viability, T/C [16]: 83.4%
viability, T/C [17]: 103%
viability, T/C [18]: 105%
viability, T/C [19]: 89.5%
viability, T/C [20]: 93.3%
viability, T/C [21]: 92%
viability, T/C [22]: 82.9%
viability, T/C [23]: 101%
viability, T/C [24]: 108%
viability, T/C [25]: 69.6%
viability, T/C [26]: 97%
viability, T/C [27]: 103%
viability, T/C [28]: 106%
viability, T/C [29]: 106%
viability, T/C [30]: 124%
viability, T/C [31]: 86.8%
viability, T/C [32]: 101%
viability, T/C [33]: 106%
viability, T/C [34]: 106%
viability, T/C [35]: 114%
viability, T/C [36]: 113%

C=CCn1c(=O)c2cnc(Nc3ccc(N4CCN(C)CC4)cc3)nc2n1-c1cccc(C(C)(C)O)n1 + CN(C)c1ccc(Nc2c3ccc(NC(=O)CCN4CCCC4)cc3nc3cc(NC(=O)CCN4CCCC4)ccc23)cc1
IC50 (second compound 0.0316 µM): 2.1 µM
IC50 (second compound 0.1 µM): 2.16 µM
IC50 (second compound 0.316 µM): 6.68 µM
IC50 (second compound 1 µM): 2.86 µM
IC50 (second compound 3.16 µM): 2.42 µM
IC50 (second compound 10 µM): 5.06 µM
viability, T/C [1]: 104%
viability, T/C [2]: 93%
viability, T/C [3]: 91.8%
viability, T/C [4]: 74.4%
viability, T/C [5]: 35.5%
viability, T/C [6]: 31.7%
viability, T/C [7]: 95.8%
viability, T/C [8]: 85.2%
viability, T/C [9]: 89.1%
viability, T/C [10]: 67.5%
viability, T/C [11]: 41.2%
viability, T/C [12]: 25.6%
viability, T/C [13]: 101%
viability, T/C [14]: 73.8%
viability, T/C [15]: 86.5%
viability, T/C [16]: 71.9%
viability, T/C [17]: 84.2%
viability, T/C [18]: 31.8%
viability, T/C [19]: 83.1%
viability, T/C [20]: 72%
viability, T/C [21]: 82.1%
viability, T/C [22]: 75.8%
viability, T/C [23]: 47.5%
viability, T/C [24]: 26.4%
viability, T/C [25]: 74.3%
viability, T/C [26]: 85.9%
viability, T/C [27]: 88%
viability, T/C [28]: 68.5%
viability, T/C [29]: 45.1%
viability, T/C [30]: 33.3%
viability, T/C [31]: 66.1%
viability, T/C [32]: 92.8%
viability, T/C [33]: 111%
viability, T/C [34]: 74.2%
viability, T/C [35]: 58.5%
viability, T/C [36]: 39.9%
